Values quoted from earlier work as cited in US20230165822A1, “URINARY ALKALIZING MEDICINAL AND/OR PHARMACEUTICAL COMPOSITION FOR THE ORAL TREATMENT OF INTERSTITIAL CYSTITIS / BLADDER PAIN SYNDROME (IC/BPS) AND FORMULATION THEREOF” (priority 2020, published 2023).

Settings: in vivo

- share reaching the bladder: only a fraction
SMILES: CC(=O)/N=c1/sc(S(N)(=O)=O)nn1C [Methazolamide]
